In PubChem BioAssay (NCI) one finds TGI and GI50 data, which are given here for 10 compounds.

Values joined by “and” are separate entries in the source; they are usually repeats but may differ in a detail not shown here. Identical values can stand only once.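 96-well plates; 48 h exposure; 5 concentrations. Endpoints by linear interpolation between flanking doses. Not reached: highest tested concentration assigned. GI50 is the concentration that inhibits growth by half. TGI: concentration producing complete growth inhibition.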 *1 amine or outer side, *2 acyl side, *3 side chain or, on linkers, in order; H or OH if unused. Where a SMILES comes first, the peptide text is derived from it. [ ]: non-standard residue; d: D form. X56 = CC[C@H](C)[C@H](OC(=O)[C@@H](C)[C@@H](CC)N[*:1])C(=O)[*:2]; X32 = C[C@H](N[*:1])C(=O)C(C)(C)C(=O)[*:2]; NMeY = CN[C@@H](Cc1ccc(O)cc1)C(=O)O; NMeL = CN[C@@H](CC(C)C)C(=O)O; NMeV = CN[C@H](C(=O)O)C(C)C

Some test systems named below: NCI-H522 lung; PC-3 prostate; CAKI-1 renal; NCI-H23 lung; UO-31 renal; RPMI-8226 leukemia; OVCAR-4 ovarian; DU-145 prostate; M19-MEL melanoma; DMS 273 small cell lung.
What all share (assay): NCI-60 cell line screen, 48 h

For `C/C(=N\N=C(N)N)C(CN(C)C)C(c1ccccc1)c1c(O)c2ccccc2oc1=O` (stereo not drawn), the TGI with NCI-H522 lung, with PC-3 prostate, in the test with CAKI-1 renal, with NCI-H23 lung, in the test on UO-31 renal and with RPMI-8226 leukemia was > 100 µM throughout. Moreover, the TGI in the test with OVCAR-4 ovarian, in the test with DU-145 prostate, in the test on M19-MEL melanoma and in the test with DMS 273 small cell lung was > 100 µM throughout.
For `COc1ccc(OC)c2c(=S)c3ccccc3[nH]c12`, the TGI with NCI-H522 lung, with PC-3 prostate, in the test on CAKI-1 renal, in the test on NCI-H23 lung, with UO-31 renal and in the test on RPMI-8226 leukemia was > 100 µM in each case. Besides, the TGI with OVCAR-4 ovarian, with DU-145 prostate, in the test with M19-MEL melanoma and with DMS 273 small cell lung was > 100 µM each time.
Regarding `C=C1C(=O)OC2CC(C)C3C=CC(=O)C3CC12` (stereo not drawn), the TGI with NCI-H522 lung is 1.95 µM; with PC-3 prostate, 7.17 µM; in the test with CAKI-1 renal, 5.47 µM; with NCI-H23 lung, 4.03 µM; in the test on UO-31 renal, 8.41 µM; in the test on RPMI-8226 leukemia it was 7.03 µM. Besides, the TGI in the test with OVCAR-4 ovarian was determined as 9.68 µM; in the test on DU-145 prostate, 21.7 µM; in the test with M19-MEL melanoma it was 9.19 µM; in the test on DMS 273 small cell lung, 12.2 µM.
With `CCOC(=O)/C(=C\c1ccc[nH]1)C(=O)c1ccccc1`, the TGI with NCI-H522 lung, in the test on CAKI-1 renal, in the test with NCI-H23 lung, in the test on UO-31 renal, in the test with RPMI-8226 leukemia and in the test with OVCAR-4 ovarian was > 100 µM throughout. Besides, the TGI in the test with M19-MEL melanoma and in the test on DMS 273 small cell lung was > 100 µM each time.
As to `NS(=O)(=O)c1ccc(NC(=O)c2cccc3cc4ccccc4nc23)cc1`, the TGI in the test with NCI-H522 lung, in the test with PC-3 prostate, in the test on CAKI-1 renal, in the test with NCI-H23 lung, with UO-31 renal and with RPMI-8226 leukemia was > 100 µM each time. Moreover, the TGI with OVCAR-4 ovarian, in the test with DU-145 prostate, in the test on M19-MEL melanoma and in the test with DMS 273 small cell lung was > 100 µM throughout.
As for `CC[C@H](C)[C@@H]1OC(=O)[C@@H](C)[C@@H](CC)NC(=O)[C@H](C)NC(=O)C(C)(C)C(=O)[C@H](C)NC(=O)[C@H](Cc2ccc(OC)cc2)N(C)C(=O)[C@H](C(C)C)N(C)C(=O)CNC(=O)[C@H](CC(C)C)N(C)C(=O)CNC1=O` (cyclo(A[X56]G[NMeL]G[NMeV][NMeY](Me)[X32])), the TGI is 6.85 µM in the test with PC-3 prostate; 0.122 µM and 0.0888 µM in the test with CAKI-1 renal; 3.66 µM with NCI-H23 lung; 0.383 µM and 0.428 µM in the test with UO-31 renal; 3.38 µM in the test on RPMI-8226 leukemia; 7.04 µM in the test with DU-145 prostate. Also, the TGI in the test on M19-MEL melanoma stood at 22.3 µM; in the test with DMS 273 small cell lung it was 0.072 µM. Moreover, the GI50 in the test on CAKI-1 renal is 0.0259 µM; with NCI-H23 lung, 0.367 µM; in the test with RPMI-8226 leukemia, 0.0263 µM.
For the compound `CCC(C(=O)c1ccccc1)C(CCCC(=O)Nc1c(C)cccc1C)N=O` (stereo not drawn), the TGI in the test on NCI-H522 lung, in the test on CAKI-1 renal, in the test on NCI-H23 lung, in the test with UO-31 renal, with RPMI-8226 leukemia and in the test with OVCAR-4 ovarian was > 100 µM in each case. The TGI with M19-MEL melanoma and with DMS 273 small cell lung was > 100 µM in each case.
Regarding `Cc1c(N=Cc2ccc(N(CCC#N)CCC#N)cc2)c(=O)n(-c2ccccc2)n1C`, the TGI in the test on NCI-H522 lung, with PC-3 prostate, in the test with CAKI-1 renal, in the test with NCI-H23 lung, in the test on UO-31 renal and in the test with RPMI-8226 leukemia was > 100 µM in each case. For the same compound, the TGI in the test on OVCAR-4 ovarian, in the test on DU-145 prostate, in the test on M19-MEL melanoma and in the test with DMS 273 small cell lung was > 100 µM throughout.
As to `COc1cc(/C=C(\OC(C)=O)c2ccc3c(c2)OCO3)cc(OC)c1OC`, the TGI is 50.2 µM in the test with NCI-H522 lung; > 100 µM in the test with CAKI-1 renal; 35.4 µM with NCI-H23 lung; 28.2 µM in the test on UO-31 renal; 76.6 µM in the test with RPMI-8226 leukemia; 51.8 µM in the test on OVCAR-4 ovarian. The TGI with M19-MEL melanoma was 30.9 µM; with DMS 273 small cell lung it was 33.6 µM.
For `Cn1cnc([N+](=O)[O-])c1Sc1nnnn1-c1ccccc1`, the TGI in the test with NCI-H522 lung was found to be 7.35 µM; with CAKI-1 renal, 30.1 µM; with NCI-H23 lung it was 34.7 µM; in the test with UO-31 renal it was 27.9 µM; in the test with RPMI-8226 leukemia it was 52.6 µM; in the test with OVCAR-4 ovarian, 22.2 µM. For the same compound, the TGI came to 24.4 µM in the test on M19-MEL melanoma and 29 µM in the test with DMS 273 small cell lung.
